Results taken from PubChem BioAssay (NCI).
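Interpolation was linear, between the two tested concentrations surrounding the appropriate level; five concentrations were tested over 48 hours in 96-well plates. TGI marks complete inhibition of growth.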

What was measured:
Assay in all cases: NCI-60 cell line screen, 48 h
[1] = test system: U251 CNS
[2] = test system: RXF 393 renal
[3] = test system: CAKI-1 renal
[4] = test system: HCT-15 colon
[5] = test system: HL-60(TB) leukemia
[6] = test system: SK-MEL-2 melanoma
[7] = test system: EKVX NSCLC
[8] = test system: SNB-19 CNS
[9] = test system: HT29 colon
[10] = test system: SW-620 colon
[11] = test system: CCRF-CEM leukemia
[12] = test system: NCI-H23 lung
[13] = test system: SN12C renal
[14] = test system: UO-31 renal
[15] = test system: OVCAR-8 ovarian
[16] = test system: OVCAR-5 ovarian
[17] = test system: OVCAR-4 ovarian
[18] = test system: IGROV1 ovarian
[19] = test system: MALME-3M melanoma
[20] = test system: ACHN renal

| SMILES | TGI [1] [µM] | TGI [2] [µM] | TGI [3] [µM] | TGI [4] [µM] | TGI [5] [µM] | TGI [6] [µM] | TGI [7] [µM] | TGI [8] [µM] | TGI [9] [µM] | TGI [10] [µM] | TGI [11] [µM] | TGI [12] [µM] | TGI [13] [µM] | TGI [14] [µM] | TGI [15] [µM] | TGI [16] [µM] | TGI [17] [µM] | TGI [18] [µM] | TGI [19] [µM] | TGI [20] [µM] |
| --- | --- | --- | --- | --- | --- | --- | --- | --- | --- | --- | --- | --- | --- | --- | --- | --- | --- | --- | --- | --- |
| Cc1ccc(NC(=O)CC/C(CC(=O)C(C)(C)C)=N/NC(=O)c2cc3ccccc3cc2O)cc1C | > 100 | > 100 | > 100 | > 100 | > 100 | > 100 | > 100 | > 100 | > 100 | > 100 | 70.1 | 47.6 | > 100 | > 100 | > 100 | > 100 | > 100 | > 100 | > 100 | > 100 |
| CCC12CCC[C@@]13C=C[C@H](O3)C(C)(C)C2=O (stereo not given in full) | > 100 | > 100 | > 100 | > 100 | > 100 | > 100 | > 100 | > 100 | > 100 | > 100 | > 100 | > 100 | > 100 | > 100 | > 100 | > 100 | > 100 | > 100 | > 100 | > 100 |
| CC1(C)N=C(/C(Cl)=[N+](/[O-])C(=O)c2ccc(Cl)cc2)C(C)(C)N1O | 55.5 | 38 | 42.7 | 35.8 | 60.7 | > 100 | > 100 | > 100 | 43 | 44.9 | 45.7 | 48.6 | 47 | > 100 | 45.3 | 42.5 | 68.5 | > 100 | 35.9 | > 100 |
